Source: the supplement of paper PMC13380429

Key:
Conditions in all cases: 72 h
[1] = system: Caco-2; assay: cell viability relative to DMSO; higher = less toxic
[2] = system: Calu-3; assay: as above
[3] = system: HepG2; assay: as above
[4] = system: U2OS; assay: as above
[5] = system: Vero E6; assay: as above
[6] = system: Caco-2; assay: relative viability EC50 (midpoint between 100% and the lowest measured viability); higher = less toxic
[7] = system: Calu-3; assay: as above
[8] = system: HepG2; assay: as above
[9] = system: U2OS; assay: as above
[10] = system: Vero E6; assay: as above
[11] = system: Caco-2; assay: drug sensitivity score (DSS) for viability; higher = more toxic; extreme values may be limits of the assay
[12] = system: Calu-3; assay: as above
[13] = system: HepG2; assay: as above
[14] = system: U2OS; assay: as above
[15] = system: Vero E6; assay: as above

SMILES | cell viability ([1]; 1 nM) [%] | cell viability ([1]; 10 nM) [%] | cell viability ([1]; 100 nM) [%] | cell viability ([1]; 1000 nM) [%] | cell viability ([1]; 10000 nM) [%] | cell viability ([2]; 1 nM) [%] | cell viability ([2]; 10 nM) [%] | cell viability ([2]; 100 nM) [%] | cell viability ([2]; 1000 nM) [%] | cell viability ([2]; 10000 nM) [%] | cell viability ([3]; 1 nM) [%] | cell viability ([3]; 10 nM) [%] | cell viability ([3]; 100 nM) [%] | cell viability ([3]; 1000 nM) [%] | cell viability ([3]; 10000 nM) [%] | cell viability ([4]; 1 nM) [%] | cell viability ([4]; 10 nM) [%] | cell viability ([4]; 100 nM) [%] | cell viability ([4]; 1000 nM) [%] | cell viability ([4]; 10000 nM) [%] | cell viability ([5]; 1 nM) [%] | cell viability ([5]; 10 nM) [%] | cell viability ([5]; 100 nM) [%] | cell viability ([5]; 1000 nM) [%] | cell viability ([5]; 10000 nM) [%] | relative viability EC50 [6] [µM] | relative viability EC50 [7] [µM] | relative viability EC50 [8] [µM] | relative viability EC50 [9] [µM] | relative viability EC50 [10] [µM] | drug sensitivity score [11] | drug sensitivity score [12] | drug sensitivity score [13] | drug sensitivity score [14] | drug sensitivity score [15]
CCCN(C/C=C/I)C1CCc2cccc(O)c2C1 (stereo not given) [8-hydroxy-PIPAT] | 107 | 95.3 | 100 | 93.8 | 101 | 101 | 101 | 112 | 103 | 99.5 | 101 | 105 | 111 | 104 | 83.4 | 103 | 100 | 102 | 97.6 | 97.8 | 97.7 | 99.7 | 100 | 99.3 | 92.9 | > 10 | > 10 | > 10 | > 10 | > 10 | 0 | 0 | 0.2 | 0 | 0
C#Cc1cccc2c1c(C(=O)c1ccc(Cn3c(C)nc4cnccc43)c(F)c1)cn2C(=O)N(C)C [ABT-491] | 101 | 86.1 | 91.1 | 91.3 | 93.3 | 97.2 | 102 | 100 | 106 | 106 | 102 | 110 | 95.6 | 100 | 91.4 | 99.7 | 98.3 | 96.6 | 98.5 | 94.7 | 103 | 97.1 | 97.1 | 98.4 | 95.5 | > 10 | > 10 | > 10 | > 10 | > 10 | 0 | 0 | 0 | 0 | 0
c1ccc(C(NCCNC(c2ccccc2)c2ccccc2)c2ccccc2)cc1 [AMN-082] | 98.9 | 104 | 96.5 | 94.8 | 94.8 | 99 | 97.7 | 96.9 | 95.7 | 92.2 | 103 | 92.4 | 108 | 98.9 | 87.4 | 96.5 | 97.8 | 96.7 | 105 | 93.8 | 104 | 95 | 95 | 93.6 | 114 | > 10 | > 10 | > 10 | > 10 | > 10 | 0 | 0 | 0.2 | 0 | 0
COc1cc(C(=O)c2c(C)oc3c(O)c(OC)ccc23)cc(OC)c1OC [BNC105] | 62.8 | 39.6 | 41.4 | 37.9 | 41.1 | 106 | 54.6 | 33.7 | 39.2 | 30.9 | 86.2 | 60.4 | 42.6 | 35.7 | 38 | 100 | 44.7 | 20.9 | 19.3 | 19.7 | 34.9 | 22.7 | 22.8 | 27.9 | 30.4 | < 0.001 | 0.0078 | 0.0055 | 0.0073 | < 0.001 | 30.3 | 27 | 24.7 | 31.5 | 38.3
Nc1n[nH]c2nc3ccccc3nc12 [CDK1-5-inhibitor] | 101 | 105 | 97.8 | 96.2 | 104 | 98.3 | 102 | 97.1 | 86 | 90.6 | 102 | 98.6 | 107 | 101 | 104 | 86.3 | 95.2 | 95.9 | 100 | 102 | 99.8 | 96.1 | 100 | 100 | 97.4 | > 10 | > 10 | > 10 | > 10 | > 10 | 0 | 1.4 | 0 | 0 | 0
O=C1C2C=Nc3ccccc3C2=NN1c1ccc(Cl)cc1 (stereo not given) [CGS-9896] | 103 | 101 | 94.2 | 93 | 82.7 | 93.7 | 104 | 87.9 | 95.8 | 103 | 97.1 | 88.6 | 91 | 94.1 | 102 | 95.6 | 100 | 91.1 | 94 | 91.3 | 99.8 | 103 | 92.6 | 97.9 | 95.8 | > 10 | > 10 | > 10 | > 10 | > 10 | 0.6 | 0 | 0 | 0 | 0
COc1ccc(OC[C@@H]2c3cc(OC)c(OC)cc3CCN2C(=O)c2cccc(Cl)c2)cc1 [CIQ] | 101 | 102 | 91.8 | 101 | 76.4 | 100 | 102 | 100 | 109 | 92.7 | 101 | 96.5 | 91.4 | 89.9 | 106 | 96.6 | 100 | 93.9 | 104 | 91.3 | 100 | 97.4 | 93.7 | 94 | 98.6 | > 10 | > 10 | > 10 | > 10 | > 10 | 0.8 | 0 | 0 | 0 | 0
CC(=O)OCC(=O)[C@@]12N=C(C)O[C@@H]1C[C@H]1[C@@H]3CCC4=CC(=O)C=C[C@]4(C)[C@H]3[C@@H](O)C[C@@]12C [Deflazacort (Calcort)] | 97.8 | 93.3 | 92.8 | 101 | 97.9 | 102 | 92.9 | 97.2 | 80.9 | 93.1 | 109 | 103 | 110 | 102 | 95.9 | 99.7 | 95.6 | 99.7 | 94.4 | 97.7 | 99.1 | 99 | 102 | 102 | 102 | > 10 | > 10 | > 10 | > 10 | > 10 | 0 | 0.4 | 0 | 0 | 0
NC(=O)C1CCCc2c1[nH]c1ccc(Cl)cc21 (stereo not given) [EX-527] | 99.7 | 94.8 | 98.5 | 92 | 103 | 107 | 101 | 107 | 96.6 | 94.7 | 93.3 | 107 | 98 | 110 | 106 | 95.9 | 93.2 | 105 | 93.4 | 98.1 | 94.1 | 107 | 93.7 | 98.9 | 109 | > 10 | > 10 | > 10 | > 10 | > 10 | 0 | 0 | 0 | 0 | 0
Cc1ccc(Cl)cc1N(CC(=O)Nc1c(F)cccc1F)S(C)(=O)=O [FPH1-(BRD-6125)] | 104 | 97.2 | 111 | 99.7 | 107 | 110 | 93.4 | 97.8 | 105 | 87.3 | 100 | 107 | 104 | 94.5 | 108 | 97.7 | 103 | 105 | 101 | 97.8 | 98.3 | 103 | 97.6 | 97.2 | 99.1 | > 10 | > 10 | > 10 | > 10 | > 10 | 0 | 0 | 0 | 0 | 0
N=C(N)Nc1ccc2[nH]c3c(c2c1)C[C@@]1(O)[C@H]2Cc4ccc(O)c5c4[C@@]1(CCN2CC1CC1)[C@H]3O5 [GNTI] | 99.7 | 95.2 | 99.4 | 95.6 | 102 | 93.8 | 92.7 | 98.3 | 102 | 106 | 99 | 122 | 111 | 98.2 | 88.1 | 99.7 | 93.5 | 101 | 101 | 104 | 101 | 97.4 | 104 | 104 | 101 | > 10 | > 10 | > 10 | > 10 | > 10 | 0 | 0 | 0.1 | 0 | 0
CN(CCOc1ccc(C[C@H](Nc2ccccc2C(=O)c2ccccc2)C(=O)O)cc1)c1ccccn1 [GW-1929] | 95.1 | 96.3 | 107 | 99.5 | 85.5 | 111 | 112 | 120 | 116 | 95.6 | 92.2 | 104 | 81.5 | 85.8 | 106 | 98.3 | 96.1 | 99.3 | 98.7 | 98.2 | 92 | 90.2 | 80.3 | 82.3 | 90.2 | > 10 | > 10 | > 10 | > 10 | > 10 | 0.2 | 0 | 0 | 0 | 0
O=C(O)C1=CO[C@@H](O[C@@H]2O[C@H](CO)[C@@H](O)[C@H](O)[C@H]2O)[C@@H]2C(CO)=CC[C@H]12 [Geniposidic acid] | 117 | 101 | 106 | 103 | 96.3 | 98.7 | 103 | 95.4 | 113 | 108 | 110 | 105 | 102 | 111 | 94.6 | 102 | 96.2 | 101 | 94.5 | 101 | 100 | 107 | 97.5 | 104 | 101 | > 10 | > 10 | > 10 | > 10 | > 10 | 0 | 0 | 0 | 0 | 0
CCC(=O)OCN1C(=O)C=CC1=O [MIRA-1] | 90.6 | 97.5 | 87.8 | 94.7 | 112 | 90.6 | 108 | 104 | 101 | 98.9 | 104 | 95.9 | 106 | 106 | 103 | 99.3 | 99.4 | 102 | 102 | 105 | 95.8 | 91.8 | 99.8 | 92 | 107 | > 10 | > 10 | > 10 | > 10 | > 10 | 0 | 0 | 0 | 0 | 0
